Assay results: patent US20180193361A1, “GUT ANTI-INFLAMMATORY AGENTS FOR REGULATION OF HIGH BLOOD GLUCOSE LEVELS” (UNIVERSITY HEALTH NETWORK, priority 2015, published 2018)

Legend:
HFD-fed C57BL/6 mice = assay: Metabolic studies, mice fed HFD or HFD 5-ASA from 6 weeks of age (preventative); format: in vivo
Description: Mice. Mice were fed either NCD (15 kcal % fat) or HFD (Research Diets, 60 kcal % fat, irradiated) starting at 6 weeks of age. All studies were performed under the approval of Animal User Protocols by the Animal Care Committee at the University Health Network. Mice were maintained in a pathogen-free, temperature-controlled environment on a 12-hour light and dark cycle. All mice used in comparative studies were male, age-matched, and litter mates where possible. […] We confirmed T cell-specific floxing of the PPARγ gene in Lck-Cre+ PPARγfl/fl mice by qPCR with a minimum of at least 90% reduction in PPARγ expression. […] We measured body weights, GTTs, ITTs, serum insulin, and fat cell diameter as previously described (Winer et al., 2009a). All GTTs were performed with a 1.5 g/kg glucose i.p. injection unless indicated otherwise. We fixed VAT, colons and small bowel ileums, from mice for 48 h in 10% buffered formalin before processing and hematoxylin/eosin staining. We enumerated crown-like structures (CLSs) in VAT by counting the number of adipocytes completely surrounded by immune cells identified on hematoxylin/eosin staining per 100× low power field. Analysis of histochemical stains was performed in a blinded fashion by two certified pathologists (S.W. and D.W.).

[1] = tested on: Lck-Cre PPARγfl/fl T cells; assay: In vitro IFNγ secretion, T cells lacking PPARγ (Lck-Cre PPARγfl/fl); format: cell-based, mice; details: HFD-fed Lck-Cre+ PPARγfl/fl vs WT, 5-ASA in vitro 0.01-1 mM
Description: Mice. Mice were fed either NCD (15 kcal % fat) or HFD (Research Diets, 60 kcal % fat, irradiated) starting at 6 weeks of age. All studies were performed under the approval of Animal User Protocols by the Animal Care Committee at the University Health Network. Mice were maintained in a pathogen-free, temperature-controlled environment on a 12-hour light and dark cycle. All mice used in comparative studies were male, age-matched, and litter mates where possible. […] We confirmed T cell-specific floxing of the PPARγ gene in Lck-Cre+ PPARγfl/fl mice by qPCR with a minimum of at least 90% reduction in PPARγ expression. […] To measure the effect of IFNγ on tight-junction gene expression, we treated MODE-K cells with recombinant mouse IFNγ (Biolegend). We purified bulk dendritic cells and T cells from murine small bowels and spleens using a negative selection DC or T cell isolation kit (Stem Cell Technologies). We plated T cells at 5×10^5 cells/well with plate-bound anti-CD3/CD28 (1 μg/ml, Biolegend). […] We collected supernatants for cytokine measurements after 72 hour incubation. […] We measured serum cytokines by Luminex Multiplex cytokine assay (Millipore, run by the UHN Microarray Center), and quantified IL-10 and IFN-γ in supernatants of anti-CD3/CD28-stimulated splenocytes or bowel immune cells (Winer et al., 2009b) by ELISA (Biolegend).

[2] = tested on: small bowel dendritic cells; assay: DC-T cell co-culture, 5-ASA pre-treated small bowel dendritic cells with OT-II T cells; format: cell-based, mice; details: DCs pre-treated with 0.1 or 1.0 mM 5-ASA 24 hours, OVA323-339 peptide, 48 hours
Description: To measure the effect of IFNγ on tight-junction gene expression, we treated MODE-K cells with recombinant mouse IFNγ (Biolegend). We purified bulk dendritic cells and T cells from murine small bowels and spleens using a negative selection DC or T cell isolation kit (Stem Cell Technologies). We plated T cells at 5×10^5 cells/well with plate-bound anti-CD3/CD28 (1 μg/ml, Biolegend). […] We collected supernatants for cytokine measurements after 72 hour incubation. […] After 24 hours, we washed the cells with PBS and co-cultured them (1×10^4 cells/well) with OVA323-339 peptide and OT-II splenic or small bowel T cells (5×10^4 cells/well) for 48 hours. Supernatants were collected at 48 hours for cytokine measurement.

endotoxin, anti-LPS IgG = assay: Endotoxin and anti-LPS IgG measurements; format: in vivo, mice; details: HFD vs HFD 5-ASA, 14 weeks
Excerpt: We measured endotoxin levels in the serum and adipose tissue using Pyrogene Recombinant C endotoxin detection fluorescence kit (Lonza Inc.). We measured mouse serum anti-LPS IgG antibody levels with a commercially available kit (Chrondrex Inc.).

[3] = tested on: oral tolerance to OVA antigen; assay: Oral tolerance studies (OVA); format: in vivo, mice; details: HFD 5-ASA vs HFD
Description: We administered oral ovalbumin (OVA) in the form of drinking water (1 mg/mL) for 7 days to NCD-, HFD- or HFD 5-ASA-fed mice to induce oral tolerance. Average consumption was similar across different groups, at 5 mL per day. Following oral tolerance induction, we immunized animals with or without oral tolerance induction subcutaneously with OVA/CFA (50 μg per side) on both sides of the chest. Axillary draining lymph nodes and VAT were collected 7 days following immunization and subjected to immunological analysis, including OVA323-339/I-A^b tetramer staining and OVA-induced cytokine production and proliferation in vitro. Briefly, we processed axillary lymph nodes into single-cell suspension through a 70 μm filter and cultured the cells (5×10^5/well) in 96-well U-bottom plate with indicated concentrations of OVA (Sigma). We collected culture supernatants at 48 h for determination of IL-2 and IFNγ via ELISA (Biolegend). To measure OVA-specific antibody responses, we performed ELISA by plating diluted serum samples (1:200-1:4000) onto OVA-coated ELISA plates (10 μg/mL), followed by biotinylated anti-mouse isotype-specific secondary antibodies (1:5000 dilution) (Southern Biotech) and HRP-conjugated streptavidin (Biolegend). To measure-OVA-specific Tregs, we stained VAT immune cells with a 1:200 dilution of PE-conjugated OVA323-339/I-A^b or control hCLIP/I-A^b tetramers (NIH Tetramer Core Facility) in FBS-supplemented RPM-I for 4 hours at 37° C., followed by antibody staining for other surface antigens and Foxp3.

[4] = HFD vs HFD 5-ASA 1500 mg/kg/day in diet, after 12-14 weeks
[5] = HFD vs HFD 5-ASA 1500 mg/kg/day, 14 weeks

## Nc1ccc(O)c(C(=O)O)c1 [5-ASA, 5-aminosalicylic acid]
HFD-fed C57BL/6 mice; 5-ASA dose range 150 mg/kg/day up to 1500 mg/kg/day in mice
  glucose tolerance: beneficial effects
HFD-fed C57BL/6 mice; HFD vs HFD 5-ASA 1500 mg/kg/day in diet
  liver steatosis: reduced
HFD-fed C57BL/6 mice; [4]
  VAT weight: no significant difference
  adipocyte size: no significant difference
  body weight: no significant difference
  number of crown-like structures in VAT: no significant difference
  organ weights: no significant difference
HFD-fed C57BL/6 mice; [5]
  fasting glucose: significant improvements
  fasting insulin: significant improvements
  glucose tolerance (GTT): significant improvements
  insulin tolerance (ITT): significant improvements
HFD-fed C57BL/6 mice; lower dose 150 mg/kg/day in HFD, 24 weeks
  effects on metabolic disease (GTT, ITT): beneficial effects
[1]
  suppressive effects on IFNγ with loss of PPARγ in T cells: abrogated
[2]
  IFNγ levels from OT-II CD4+ T cells: reduced
endotoxin, anti-LPS IgG
  IgG responses to LPS (serum anti-LPS IgG): markedly diminished
  VAT endotoxin levels: trended lower
  serum endotoxin: reduced
[3]; oral OVA then OVA-CFA immunization
  OVA-specific IgA: nearly threefold increase
[3]; OVA/I-Ab tetramers
  antigen-specific Tregs to OVA in VAT: nearly fourfold increase
[3]; draining lymph nodes
  OVA-specific T cell-derived IFNγ: reduction
  OVA-specific T cell-derived IL-2: reduction
